Experimental data taken from US11098058B2, “Bicyclic ketone compounds and methods of use thereof” (Genentech, Inc., priority 2017, dated 2021).

target: human RIP1 kinase domain (2-375) (Homo sapiens (Human), UniProt Q13546); assay: biochemical; details: RIP1 kinase inhibition, tight-binding apparent Ki, 50 nM enzyme, 50 μM ATP, 2 hours incubation
Sequence (Q13546 2-375): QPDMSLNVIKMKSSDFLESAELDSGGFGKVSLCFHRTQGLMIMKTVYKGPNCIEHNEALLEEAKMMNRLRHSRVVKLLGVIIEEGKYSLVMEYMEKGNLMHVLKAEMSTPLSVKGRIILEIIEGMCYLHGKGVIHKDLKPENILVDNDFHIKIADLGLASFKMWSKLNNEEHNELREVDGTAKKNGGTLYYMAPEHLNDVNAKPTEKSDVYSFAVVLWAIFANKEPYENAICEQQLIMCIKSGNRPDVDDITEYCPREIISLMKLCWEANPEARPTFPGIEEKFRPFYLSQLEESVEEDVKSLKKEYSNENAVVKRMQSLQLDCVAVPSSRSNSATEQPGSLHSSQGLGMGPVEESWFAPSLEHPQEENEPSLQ

| Compound | Ki |
| --- | --- |
| O=C(COC(F)(F)F)c1nc2n(n1)[C@H](c1ccccc1)C[C@@H]2F (racemic) [Example 142, 1-[rac-(5S,7S)-7-fluoro-5-phenyl-6,7-dihydro-5H-pyrrolo[1,2-b][1,2,4]triazol-2-yl]-2-(trifluoromethoxy)ethanone] | 9 nM |
| [2H][C@]1(Cl)C[C@@H](c2ccccc2)n2nc(C(=O)C3CC3)nc21 (racemic) [Example 119, cyclopropyl-[rac-(5S,7S)-7-chloro-7-deuterio-5-phenyl-5,6-dihydropyrrolo[1,2-b][1,2,4]triazol-2-yl]methanone] | 36 nM |
| O=C(c1nc2n(n1)[C@H](c1ccccc1)C[C@@H]2F)[C@H]1CCCN1 (racemic) [Example 128, [rac-(5S,7S)-7-fluoro-5-phenyl-6,7-dihydro-5H-pyrrolo[1,2-b][1,2,4]triazol-2-yl]-[rac-(2R)-pyrrolidin-2-yl]methanone] | 650 nM |
| [2H][C@@]1(Cl)C[C@@H](c2ccccc2)n2nc(C(=O)C3CC3)nc21 (racemic) [Example 120, cyclopropyl-[rac-(5S,7R)-7-chloro-7-deuterio-5-phenyl-5,6-dihydropyrrolo[1,2-b][1,2,4]triazol-2-yl]methanone] | 910 nM |
| O=C(c1cc2n(n1)[C@H](c1ccccc1)C[C@@H]2F)C1CC1 (racemic) [Example 78, cyclopropyl-[rac-(4S,6S)-4-fluoro-6-phenyl-5,6-dihydro-4H-pyrrolo[1,2-b]pyrazol-2-yl]methanone] | 20 nM |
| CC(F)(F)[C@@H]1C[C@H](F)c2nc(C(=O)C3CC3)nn21 (racemic) [Example 122, cyclopropyl-[rac-(5S,7S)-5-(1,1-difluoroethyl)-7-fluoro-6,7-dihydro-5H-pyrrolo[1,2-b][1,2,4]triazol-2-yl]methanone] | 360 nM |
| O=C(c1nc2n(n1)[C@H](c1ccccc1F)CC2)C1CC1 (racemic) [Example 63, cyclopropyl-[rac-(5S)-5-(2-fluorophenyl)-6,7-dihydro-5H-pyrrolo[1,2-b][1,2,4]triazol-2-yl]methanone] | 10 nM |
| COCC(C)(C)C(=O)c1nc2n(n1)[C@H](c1ccccc1)C[C@@H]2F (racemic) [Example 133, 3-methoxy-2,2-dimethyl-1-[rac-(5S,7S)-7-fluoro-5-phenyl-6,7-dihydro-5H-pyrrolo[1,2-b][1,2,4]triazol-2-yl]propan-1-one] | < 5 nM |
| [2H][C@H]1C[C@@H](c2ccccc2)n2nc(C(=O)C3CC3)nc21 (single isomer, unassigned) [Example 111] | 8.2 nM |
| O=C(c1nc2n(n1)[C@H](c1ccccc1)C[C@@H]2F)[C@@H]1C[C@H]1C(F)(F)F (racemic) [Example 161, [rac-(5S,7S)-7-fluoro-5-phenyl-6,7-dihydro-5H-pyrrolo[1,2-b][1,2,4]triazol-2-yl]-[rac-(1R,2R)-2-(trifluoromethyl)cyclopropyl]methanone] | 50 nM |
| O=C(CC1CCCCO1)c1nc2n(n1)[C@H](c1ccccc1)C[C@@H]2F (mixture of isomers) [Example 135, 1-[rac-(5S,7S)-7-fluoro-5-phenyl-6,7-dihydro-5H-pyrrolo[1,2-b][1,2,4]triazol-2-yl]-2-tetrahydropyran-2-yl-ethanone] | 180 nM |

Now from value to compound:

| Ki | Compound |
| --- | --- |
| 16 nM | O=C(c1nc2n(n1)[C@H](c1ccccc1)C[C@@H]2F)C1CCCOC1 (mixture of isomers) [Example 127, [rac-(5S,7S)-7-fluoro-5-phenyl-6,7-dihydro-5H-pyrrolo[1,2-b][1,2,4]triazol-2-yl]-tetrahydropyran-3-yl-methanone] |
| 7.9 nM | [2H][C@]1(F)C[C@@H](c2ccccc2)n2nc(C(=O)C3CC3)nc21 (single isomer, unassigned) [Example 103] |
| < 5 nM | O=C(c1nc2n(n1)[C@H](c1ccccc1)C[C@@H]2F)[C@@H]1CCOC1 (racemic) [Example 132, [rac-(5S,7S)-7-fluoro-5-phenyl-6,7-dihydro-5H-pyrrolo[1,2-b][1,2,4]triazol-2-yl]-[rac-(3R)-tetrahydrofuran-3-yl]methanone] |
| < 5 nM | C[C@]1(C(=O)c2nc3n(n2)[C@H](c2ccccc2)C[C@@H]3F)CCOC1 (racemic) [Example 138, [rac-(5S,7S)-7-fluoro-5-phenyl-6,7-dihydro-5H-pyrrolo[1,2-b][1,2,4]triazol-2-yl]-[rac-(3S)-3-methyltetrahydrofuran-3-yl]methanone] |
| 230 nM | O=C(c1nc2n(n1)[C@H](c1ccccc1)C[C@@H]2F)[C@]12COC[C@H]1C2 (racemic) [Example 144, [rac-(5S,7S)-7-fluoro-5-phenyl-6,7-dihydro-5H-pyrrolo[1,2-b][1,2,4]triazol-2-yl]-[rac-(1S,5S)-3-oxabicyclo[3.1.0]hexan-1-yl]methanone] |
| 3.7 nM | C[C@H]1C[C@@H]1C(=O)c1nc2n(n1)[C@H](c1ccccc1)C[C@@H]2F (mixture of isomers) [Example 75, [(5S,7S)-7-fluoro-5-phenyl-6,7-dihydro-5H-pyrrolo[1,2-b][1,2,4]triazol-2-yl]-[rac-(1S,2S)-2-methylcyclopropyl]methanone] |
| 8 nM | O=C(c1nc2n(n1)[C@H](c1ccccc1)C[C@@H]2F)C1CCOC1 (mixture of isomers) [Example 130, [rac-(5S,7S)-7-fluoro-5-phenyl-6,7-dihydro-5H-pyrrolo[1,2-b][1,2,4]triazol-2-yl]-tetrahydrofuran-3-yl-methanone] |

same assay, conditions: tight-binding apparent inhibition constant (Ki app, Morrison equation), 50 nM enzyme, 50 μM ATP, 2 hours incubation

| Compound | Ki |
| --- | --- |
| O=C(c1ccccn1)c1nc2n(n1)[C@H](c1ccccc1)C[C@@H]2F (racemic) [Example 33, (rac-(5S,7S)-7-fluoro-5-phenyl-6,7-dihydro-5H-pyrrolo[1,2-b][1,2,4]triazol-2-yl)-(2-pyridyl)methanone] | 2360 nM |
| CC(C)(C)C(=O)c1nc2n(n1)[C@@H](c1ccccc1)C[C@H]2F (stereo in doubt) [Example 38, 2,2-dimethyl-1-[rac-(5R,7R)-7-fluoro-5-phenyl-6,7-dihydro-5H-pyrrolo[1,2-b][1,2,4]triazol-2-yl]propan-1-one] | 4.17 nM |
| O=C(Cc1ccccc1)c1nc2n(n1)[C@H](c1ccccc1)C[C@@H]2F (racemic) [Example 7, 2-phenyl-1-[rac-(5S,7S)-7-fluoro-5-phenyl-6,7-dihydro-5H-pyrrolo[1,2-b][1,2,4]triazol-2-yl]ethanone] | 12.2 nM |
| CCC(=O)c1nc2n(n1)[C@H](c1ccccc1)[C@@H](F)C2 (racemic) [Example 32, 1-[rac-(5R,6S)-6-fluoro-5-phenyl-6,7-dihydro-5H-pyrrolo[1,2-b][1,2,4]triazol-2-yl]propan-1-one] | 737 nM |
| CCC(=O)c1nc2n(n1)[C@H](c1ccccc1F)CC2 (racemic) [Example 31, 1-[rac-(5S)-5-(2-fluorophenyl)-6,7-dihydro-5H-pyrrolo[1,2-b][1,2,4]triazol-2-yl]propan-1-one] | 7.39 nM |
| O=C(c1nc2n(n1)[C@H](c1ccccc1)C[C@@H]2F)C1(C(F)(F)F)CC1 (racemic) [Example 14, (rac-(5S,7S)-7-fluoro-5-phenyl-6,7-dihydro-5H-pyrrolo[1,2-b][1,2,4]triazol-2-yl)-[1-(trifluoromethyl)cyclopropyl]methanone] | 11.2 nM |
| O=C(c1nc2n(n1)[C@H](c1ccccc1)C[C@@H]2F)c1cccs1 (racemic) [Example 41, (rac-(5S,7S)-7-fluoro-5-phenyl-6,7-dihydro-5H-pyrrolo[1,2-b][1,2,4]triazol-2-yl)-(2-thienyl)methanone] | 26.7 nM |
| CC(C)(O)C(=O)c1nc2n(n1)[C@@H](c1ccccc1)C[C@H]2F (stereo in doubt) [Example 5, 2-hydroxy-2-methyl-1-[rac-(5R,7R)-7-fluoro-5-phenyl-6,7-dihydro-5H-pyrrolo[1,2-b][1,2,4]triazol-2-yl]propan-1-one] | 23 nM |

The next lines start with the values.

| Ki | Compound |
| --- | --- |
| 22.4 nM | O=C(c1nc2n(n1)[C@H](c1ccccc1)C[C@@H]2F)C1(F)CC1 (racemic) [Example 53, (1-fluorocyclopropyl)-(rac-(5S,7S)-7-fluoro-5-phenyl-6,7-dihydro-5H-pyrrolo[1,2-b][1,2,4]triazol-2-yl)methanone] |
| 30 nM | CC1(C(=O)c2nc3n(n2)[C@H](c2ccccc2)C[C@@H]3F)COC1 (racemic) [Example 15, (rac-(5S,7S)-7-fluoro-5-phenyl-6,7-dihydro-5H-pyrrolo[1,2-b][1,2,4]triazol-2-yl)-(3-methyloxetan-3-yl)methanone] |
| 42.3 nM | O=C(c1nc2n(n1)[C@H](c1ccccc1)C[C@@H]2F)C1COC1 (racemic) [Example 57, oxetan-3-yl-[rac-(5S,7S)-7-fluoro-5-phenyl-6,7-dihydro-5H-pyrrolo[1,2-b][1,2,4]triazol-2-yl]methanone] |
| 3.56 nM | CCC(=O)c1nc2n(n1)[C@H](c1ccccc1)C[C@@H]2F (racemic) [Example 47, 1-[rac-(5S,7S)-7-fluoro-5-phenyl-6,7-dihydro-5H-pyrrolo[1,2-b][1,2,4]triazol-2-yl]propan-1-one] |
| 235 nM | O=C(c1nc2n(n1)[C@@H](c1ccccc1)C[C@@H]2F)C1CC1 (racemic) [Example 18, cyclopropyl-[rac-(5R,7S)-7-fluoro-5-phenyl-6,7-dihydro-5H-pyrrolo[1,2-b][1,2,4]triazol-2-yl]methanone] |
| 18.8 nM | O=C(c1nc2n(n1)[C@H](c1ccccc1)C[C@@H]2F)C1CCCC1 (racemic) [Example 36, cyclopentyl--(rac-(5S,7S)-7-fluoro-5-phenyl-6,7-dihydro-5H-pyrrolo[1,2-b][1,2,4]triazol-2-yl)methanone] |
| 28.7 nM | O=C(c1nc2n(n1)[C@H](c1ccccc1)C[C@@H]2F)C1(CO)CC1 (racemic) [Example 58, [1-(hydroxymethyl)cyclopropyl]-[rac-(5S,7S)-7-fluoro-5-phenyl-6,7-dihydro-5H-pyrrolo[1,2-b][1,2,4]triazol-2-yl]methanone] |
| 193 nM | CCC(=O)c1nc2n(n1)[C@@H](c1ccccc1)C[C@@H]2F (racemic) [Example 13, 1-[rac-(5R,7S)-7-fluoro-5-phenyl-6,7-dihydro-5H-pyrrolo[1,2-b][1,2,4]triazol-2-yl]propan-1-one] |
